This assay relates to HeLa or JURKAT. Kind of assay: Cytotoxicity assay (Alamar Blue) with guanosine rescue. It is filed as cell-based. On the procedure: HeLa cells (DSMZ, ACC 57) and Jurkat cells (DSMZ, ACC 282) in exponential growth phase are exposed for 3 days to test compounds. The number of surviving cells is then determined by the Alamar Blue assay (Serotec Inc.). This assay incorporates a fluorometric growth indicator based on detection of metabolic activity. Specifically, the system incorporates an oxidation-reduction indicator that fluoresces in response to chemical reduction of the growth medium resulting from cell growth. As cells grow in culture, innate metabolic activity results in a chemical reduction of the immediate surrounding environment. Continued growth maintains a reduced environment while inhibition of growth maintains an oxidized environment. […] Fluorescence is monitored at 560 nm (Exc.) and 590 nm Em.
HeLa cells (1×10^3) or JURKAT cells (1×10^3) are plated in 100 μl MEM medium (with Earle's salt; Biochrom KG) containing 10% FBS, 2 mM L-glutamine, and non-essential animo acids in 96-well plates and incubated at 37° C. and 5% CO2 atmosphere. […] The fluorescence is then measured as described above and the LD50 is determined based on a sigmoidal dose response regression. […] Any toxicity still detected can then be ascribed either to other biological effects of the of T-L-C conjugate of mycophenolic acid, or is due to the very high intracellular concentration of mycophenolic acid, following concentrative uptake into the cell.

A value given as a limit tells only on which side of the number the result lay.

What is called IC50 is the concentration at which inhibition is half-maximal. Low values mean greater potency in that assay, high ones weaker potency in that assay. Consider `COc1c(C)c2c(c(O)c1C/C=C(\C)CCC(=O)O)C(=O)OC2` [Mycophenolic acid], for which the “effect in the presence of guanosine” value (50 μM guanosine) is recorded as “completely removed”. Further, the concentration for half-maximal inhibition (IC50) (normal culture conditions) was below 2000 nM.

Source of the values: patent US20080145343A1, “Conjugates of biologically active compounds, methods for their preparation and use, formulation and pharmaceutical applications thereof” (priority 2002, published 2008).
